Experimental data published in patent US20040038958A1, “Topical treatment of skin diseases” (priority 2002, published 2004).
Values joined by “and” are separate entries in the source; they are usually repeats but may differ in a detail not shown here. Equal entries are not always repeated. “Also recorded” adds a separate entry of the source.

Tests used:
[1] = test system: passively sensitized human airways; settings: Schmidt et al., 2000; cited from earlier work
interleukin 4 = experiment: IL-4 in homogenized mouse ears after TDI challenge (ELISA); type: in vivo, BALB/c-mice
Procedure: (§1) One part of the collected ears was fixed in 4% formaldehyde for histological section and stained with haematoxylin-eosin with respect to dermal thickness and granulocyte accumulation. These parameters were measured in 10 fields at 40 times magnification. The remaining tissue was shock-frozen and stored in liquid nitrogen immediately after sampling. For the determination of biochemical parameters, the mice ears were homogenized under liquid nitrogen. The homogenates were taken in 200 μl RPMI 1640 medium and the protease inhibitor Pefabloc® (1 mmol) was added and the samples were mixed intensively. After centrifugation (10000 g, 10 min, 4° C.), the supernatant was collected and the protein content was determined. The samples were stored at −80° C. until the cytokines were determined. Interleukin (IL) 4, IL-6 and MIP-2 were measured in the samples by ELISA using commercially available kits according to manufacturers instructions.

[2] = Penetration of 14C AWD 12-281 through murine back skin (Franz diffusion cell); type: in vitro ADME, mouse
Procedure: FIG. 1: Cutaneous permeation of ^14C AWD 12-281 measured using a “Franz” diffusion cell and murine back skin. Activity of ^14C AWD 12-281 was measured in […] during 360 min incubation. Results of two independent experiments. 15 μl (110322970 dpm) of ^14C AWD 12-281 (dissolved in acetone/DMSO 1:1) was applied to the shaved skin.
The ability of ^14C AWD 12-281 to penetrate through murine back skin was tested in a diffusion cell (Franz cell). Dry shaved murine back skin was set onto the diffusion cell so that 1.5 cm (diameter) of the dermal side were in contact with warmed (34° C.) buffer (bovine serum). 15 μl (110322970 dpm) of ^14C AWD 12-281 (dissolved in acetone/DMSO 1:1) were applied to the shaved skin. Samples were taken 15, 60, 120, 180, 240, 300, 360 min and the radioactivity was measured in a β counter (Beckman, Munich, Germany). The experiment was performed twice.

interleukin 6 = experiment: IL-6 in homogenized mouse ears after TDI challenge (ELISA); type: in vivo, BALB/c-mice
Procedure: as §1

[3] = test system: granulocyte influx in the dermis of mice ears; experiment: Histological examination of mouse ear skin after TDI challenge; type: in vivo, BALB/c-mice
Procedure: as §1

[4] = test system: human cells from nasal polyps; settings: antigen stimulated; Kuss et al., 2002; cited from earlier work
[5] = test system: macrophage inflammatory protein 2; experiment: MIP-2 in homogenized mouse ears after TDI challenge (ELISA); type: in vivo, BALB/c-mice
Procedure: as §1

human eosinophils = settings: in vitro; Ezeamuzie, 2001; cited from earlier work
[6] = test system: sensitized Brown Norway rats; settings: late phase airway reaction to antigen; Kuss et al., 2002; cited from earlier work
domestic pigs = settings: Kuss et al., 2002; cited from earlier work
[7] = test system: mice sensitized to TDI (long term exposure); experiment: TDI induced ear swelling after long term (120 days) repeated exposure sensitization; type: in vivo; settings: 120 days sensitization, AWD 12-281 3% 1 h after challenge
Procedure: FIG. 4: Effect of AWD 12-281 on TDI induced ear swelling in mice sensitized to TDI using a long term (120 days) repeated exposure sensitization paradigm. Bars represent ear swelling 1, 5 and 24 h after TDI challenge.
Furthermore, an experiment was carried out to obtain information on the therapeutic effects of AWD 12-281 in a model of long term exposure to TDI. Thus 10 mice were treated with 100 μl 0.5% TDI on the abdominal skin in intervals of 10 days for 120 days. Ten days after the last abdominal TDI treatment, mice were challenged on the left ear with 20 μl 0.5% TDI, split in 10 μl onto the outer and inner surface of the ear, respectively. One hour after TDI challenge 5 mice were treated with AWD 12-281 (3%), 5 mice were sham treated. Before as well as 1, 5 and 24 h after challenge, the ear thickness was measured.

[8] = 24 h after TDI challenge, AWD 12-281 3%, rechallenge
[9] = 24 h after TDI challenge, topical 2 h before challenge, AWD 12-281 1%, cilomilast 3%, diflorasone 0.05%
[10] = AWD 12-281 3%, cilomilast 3%, diflorasone 0.05%, 24 h after TDI challenge

O=C(Nc1c(Cl)cncc1Cl)C(=O)c1cn(Cc2ccc(F)cc2)c2ccc(O)cc12 [AWD 12-281, N-(3,5-Dichloro-4-pyridinyl)-2-[1-(4-fluoro-benzyl)-5-hydroxy-1 H-indol-3-yl]-2-oxoacetamide]
bronchospasmogenic effect of an allergen [1]: significantly reduced the bronchospasmogenic effect of an allergen
concentration of interleukin 4 in mouse skin (interleukin 4; [8]): inhibited the increase significantly
concentration of interleukin 4 in homogenized mouse ears (interleukin 4; [9]): reduced the increase slightly; also recorded: slight inhibitory effect
IL-4, mean inhibition (%) of the TDI induced synthesis (interleukin 4; [10]): 80% and 81%
IL-4 (interleukin 4; AWD 12-281 3%, homogenized mouse ears 24 h after TDI challenge (rechallenge), vehicle control 67 ± 2, mean ± s.e.): 12 ± 3 pg/400 µg protein
amount of radioactivity measured in buffer, % of the total activity (cumulative absorption) ([2]; 14C AWD 12-281 in acetone/DMSO 1:1 on shaved murine back skin, 360 min (6 h) after application, two independent experiments): 0.22% and 0.08%
absorption compared to hydrocortisone ([2]; AWD 12-281 murine skin after 6 h vs hydrocortisone in human skin in Franz cells (Hueber et al., 1994)): tenfold higher absorption compared to hydrocortisone
concentration of interleukin 6 in mouse skin (interleukin 6; [8]): inhibited this response significantly
concentration of interleukin 6 in homogenized mouse ears (interleukin 6; [9]): weak significantly; also recorded: inhibited this response significantly; also recorded: only a slight effect
IL-6, mean inhibition (%) of the TDI induced synthesis (interleukin 6; [10]): 52%
IL-6 (interleukin 6; AWD 12-281 3%, homogenized mouse ears 24 h after TDI challenge (rechallenge), vehicle control 89 ± 5, mean ± s.e.): 42 ± 6 pg/400 µg protein
inflammatory cells and vascular leakage, histological examination ([3]; AWD 12-281 (3%) treated mouse ears, long term exposure study (not shown)): nearly total absense of inflammatory cells and vascular leakage
edema and influx of inflammatory cells (mainly granulocytes) ([3]; mouse ear skin 24 h after TDI challenge, topical treatment): inhibited these inflammatory processes markedly
release of inflammatory mediators such as GM-CSF, TNF-α and histamine [4]: inhibited the release of inflammatory mediators
concentration of MIP-2 in mouse skin [5, 8]: diminished the increase of the MIP-2 concentration significantly
concentration of macrophage inflammatory protein 2 in homogenized mouse ears [5, 9]: reduced the increase slightly; also recorded: reduced this increase slightly
MIP-2, mean inhibition (%) of the TDI induced synthesis [5, 10]: 75%
MIP-2 ([5]; AWD 12-281 3%, homogenized mouse ears 24 h after TDI challenge (rechallenge), vehicle control 286 ± 39, mean ± s.e.): 72 ± 8 pg/400 µg protein
degranulation of human eosinophils (human eosinophils): inhibited the degranulation
accumulation of eosinophils in bronchoalveolar lavage [6]: significantly reduced the accumulation of eosinophils
LPS induced lung neutrophilia (domestic pigs): inhibitory effects
TDI induced ear swelling ([7]; 1 and 5 h after challenge): no significant difference between the groups
TDI induced ear swelling ([7]; 5 h after challenge): slight inhibition
TDI induced ear swelling ([7]; 24 h after challenge): nearly abolished the TDI induced swelling; also recorded: inhibited the swelling significantly
